Source: PubChem BioAssay AID248 (DTP/NCI, 2004)
Several values for one entry are separate records, joined by “and”; a condition that tells them apart may be missing. Equal values may be shown once. Toxic doses and inconclusive results are not listed. Cut-off read from the data, not from the text of the source: active = T/C of 150% or more; inactive = T/C below 125%.

Test system: L1210 leukemia ip in BDF1 mice, survival T/C
Experiment: NCI In Vivo Anticancer Drug Screen. Data for tumor model L1210 Leukemia (intraperitoneal) in B6D2F1 (BDF1) mice
Details: endpoint: mean survival time, higher = longer survival
Outline: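 Each compound was tested against a transplantable tumor grown in mice. The endpoint was survival, with treated animals benchmarked against vehicle controls as a simple ratio.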

[1] = dose: 100.0 mg/kg/injection, schedule: Q04DX003 (ip), vehicle: saline with Tween-80
[2] = dose: 200.0 mg/kg/injection, schedule: Q04DX003 (ip), vehicle: saline with Tween-80
[3] = dose: 400.0 mg/kg/injection, schedule: Q04DX003 (ip), vehicle: saline with Tween-80
[4] = dose: 100.0 mg/kg/injection, schedule: Q01DX009 (ip), vehicle: saline with Tween-80
[5] = dose: 200.0 mg/kg/injection, schedule: Q01DX009 (ip), vehicle: saline with Tween-80
[6] = dose: 400.0 mg/kg/injection, schedule: Q01DX009 (ip), vehicle: saline with Tween-80
[7] = dose: 100.0 mg/kg/injection, schedule: Q04DX002 (ip), vehicle: Klucel (hydroxypropylcellulose) (HPC)
[8] = dose: 200.0 mg/kg/injection, schedule: Q04DX002 (ip), vehicle: Klucel (hydroxypropylcellulose) (HPC)
[9] = dose: 400.0 mg/kg/injection, schedule: Q04DX002 (ip), vehicle: Klucel (hydroxypropylcellulose) (HPC)
[10] = dose: 100.0 mg/kg/injection, schedule: Q01DX001 (ip), vehicle: carboxymethylcellulose (CMC)
[11] = dose: 200.0 mg/kg/injection, schedule: Q01DX001 (ip), vehicle: carboxymethylcellulose (CMC)
[12] = dose: 400.0 mg/kg/injection, schedule: Q01DX001 (ip), vehicle: carboxymethylcellulose (CMC)
[13] = dose: 100.0 mg/kg/injection, schedule: Q01DX009 (ip), vehicle: Klucel (hydroxypropylcellulose) (HPC)
[14] = dose: 200.0 mg/kg/injection, schedule: Q01DX009 (ip), vehicle: Klucel (hydroxypropylcellulose) (HPC)
[15] = dose: 400.0 mg/kg/injection, schedule: Q01DX009 (ip), vehicle: Klucel (hydroxypropylcellulose) (HPC)

Measured: T/C

Cc1cc(C)[nH]c(=O)c1
inactive: [1] 109 % of control | [2] 102 % of control | [3] 98 % of control

COc1ccc(C(=O)CC(C#N)c2ccc(OC)c(OC)c2)cc1OC (stereo not given)
inactive: [4] 100 % of control | [5] 96 % of control | [6] 100 % of control

CC(=O)C(C)(C)Cl
inactive: [4] 94 % of control | [5] 95 % of control | [6] 101 % of control

NC(CC1CCCCC1)C(=O)O (stereo not given)
inactive: [7] 91 % of control | [8] 88 % of control | [9] 91 % of control

CCOC(=O)C1(C(=O)OCC)CCC(C(=O)OCC)(C(=O)OCC)CC1
inactive: [7] 101 % of control | [8] 101 % of control | [9] 101 % of control

O=C(N/N=C/c1cccc([N+](=O)[O-])c1)C(O)C(O)C(O)C(O)CO (stereo not given)
inactive: [10] 97 % of control | dose: 100.0 mg/kg/injection, schedule: Q01DX009 (ip), vehicle: carboxymethylcellulose (CMC) 102 % of control | dose: 100.0 mg/kg/injection, schedule: Q04DX002 (ip), vehicle: carboxymethylcellulose (CMC) 100 % of control | dose: 100.0 mg/kg/injection, schedule: Q04DX003 (ip), vehicle: carboxymethylcellulose (CMC) 94 % of control | [11] 104 % of control | dose: 200.0 mg/kg/injection, schedule: Q01DX009 (ip), vehicle: carboxymethylcellulose (CMC) 104 % of control and 91 % of control | dose: 200.0 mg/kg/injection, schedule: Q04DX002 (ip), vehicle: carboxymethylcellulose (CMC) 96 % of control and 106 % of control | dose: 200.0 mg/kg/injection, schedule: Q04DX003 (ip), vehicle: carboxymethylcellulose (CMC) 100 % of control | [12] 95 % of control | dose: 400.0 mg/kg/injection, schedule: Q01DX009 (ip), vehicle: carboxymethylcellulose (CMC) 94 % of control | dose: 400.0 mg/kg/injection, schedule: Q04DX002 (ip), vehicle: carboxymethylcellulose (CMC) 103 % of control and 91 % of control | dose: 400.0 mg/kg/injection, schedule: Q04DX003 (ip), vehicle: carboxymethylcellulose (CMC) 94 % of control

COc1ccc(Cl)cc1NC(=O)c1cccc([N+](=O)[O-])c1
inactive: [13] 98 % of control | [14] 98 % of control | [15] 102 % of control

CC(C)(C)c1cc(C[P+](c2ccccc2)(c2ccccc2)c2ccccc2)cc(C(C)(C)C)c1O
inactive: dose: 1.56 mg/kg/injection, schedule: Q01DX009 (ip), vehicle: saline 106 % of control | dose: 1.56 mg/kg/injection, schedule: Q04DX003 (ip), vehicle: saline 91 % of control | dose: 3.12 mg/kg/injection, schedule: Q01DX009 (ip), vehicle: saline 105 % of control | dose: 3.12 mg/kg/injection, schedule: Q04DX003 (ip), vehicle: saline 96 % of control | dose: 6.25 mg/kg/injection, schedule: Q04DX003 (ip), vehicle: saline 91 % of control

CC(O)(c1ccccc1)C(C(=O)O)c1ccccc1 (stereo not given)
inactive: dose: 50.0 mg/kg/injection, schedule: Q01DX001 (ip), vehicle: saline 103 % of control | dose: 100.0 mg/kg/injection, schedule: Q01DX001 (ip), vehicle: saline 103 % of control | dose: 200.0 mg/kg/injection, schedule: Q01DX001 (ip), vehicle: saline 103 % of control | dose: 400.0 mg/kg/injection, schedule: Q01DX001 (ip), vehicle: saline 97 % of control

CN(C)C(=O)Nc1cccc(OC(=O)NCCCl)c1
inactive: [1] 96 % of control | [2] 94 % of control | [3] 94 % of control

Clc1ccc2c[n+]3ccccc3cc2c1
inactive: dose: 2.0 mg/kg/injection, schedule: Q01DX Z (ip), vehicle: carboxymethylcellulose (CMC) 102 % of control | dose: 4.0 mg/kg/injection, schedule: Q01DX Z (ip), vehicle: carboxymethylcellulose (CMC) 92 % of control | dose: 8.0 mg/kg/injection, schedule: Q01DX Z (ip), vehicle: carboxymethylcellulose (CMC) 103 % of control | dose: 16.0 mg/kg/injection, schedule: Q01DX Z (ip), vehicle: carboxymethylcellulose (CMC) 105 % of control

NC(N)=N/N=C(\c1ccc(Br)cc1)C1CC1
inactive: dose: 15.0 mg/kg/injection, schedule: Q01DX Z (ip), vehicle: carboxymethylcellulose (CMC) 96 % of control | dose: 30.0 mg/kg/injection, schedule: Q01DX Z (ip), vehicle: carboxymethylcellulose (CMC) 95 % of control | dose: 30.0 mg/kg/injection, schedule: Q01DX Z (oral), vehicle: carboxymethylcellulose (CMC) 100 % of control | dose: 60.0 mg/kg/injection, schedule: Q01DX Z (ip), vehicle: carboxymethylcellulose (CMC) 96 % of control | dose: 60.0 mg/kg/injection, schedule: Q01DX Z (oral), vehicle: carboxymethylcellulose (CMC) 115 % of control | dose: 120.0 mg/kg/injection, schedule: Q01DX Z (oral), vehicle: carboxymethylcellulose (CMC) 107 % of control and 121 % of control | dose: 240.0 mg/kg/injection, schedule: Q01DX Z (oral), vehicle: carboxymethylcellulose (CMC) 102 % of control and 111 % of control

C(=C\c1cccnc1)/c1ccncc1
inactive: dose: 50.0 mg/kg/injection, schedule: Q04DX003 (ip), vehicle: saline with Tween-80 97 % of control | [1] 102 % of control

CCCCCCCCCCCCOc1ccccc1OC
inactive: dose: 100.0 mg/kg/injection, schedule: Q01DX001 (ip), vehicle: Klucel (hydroxypropylcellulose) (HPC) 89 % of control | dose: 200.0 mg/kg/injection, schedule: Q01DX001 (ip), vehicle: Klucel (hydroxypropylcellulose) (HPC) 90 % of control | dose: 400.0 mg/kg/injection, schedule: Q01DX001 (ip), vehicle: Klucel (hydroxypropylcellulose) (HPC) 95 % of control

Cc1cc(OCCOC(=O)Nc2ccc(F)cc2)ccc1Cl
inactive: [13] 106 % of control | [14] 101 % of control | [15] 101 % of control

CNC(=S)N/N=C(\C=N\NC(=S)NC)c1ccc(OC)cc1
inactive: [7] 101 % of control | [8] 101 % of control | [9] 105 % of control

C=C(NC(C)=O)C(=O)OC
inactive: dose: 75.0 mg/kg/injection, schedule: Q04DX003 (ip), vehicle: saline 102 % of control | dose: 150.0 mg/kg/injection, schedule: Q04DX003 (ip), vehicle: saline 100 % of control | dose: 300.0 mg/kg/injection, schedule: Q04DX003 (ip), vehicle: saline 97 % of control

CCCCCCCCCCCCCCCCCC(=O)OCCCCCCC
inactive: [13] 102 % of control | [14] 102 % of control | [15] 112 % of control

COc1cccc(CCNC(=O)CCN2C(=O)c3ccccc3C2=O)c1
inactive: dose: 50.0 mg/kg/injection, schedule: Q01DX001 (ip), vehicle: carboxymethylcellulose (CMC) 94 % of control | [10] 96 % of control | [11] 100 % of control | [12] 100 % of control

c1nc2c([nH]1)CNCC2
inactive: dose: 100.0 mg/kg/injection, schedule: Q01DX009 (ip), vehicle: saline 94 % of control | dose: 100.0 mg/kg/injection, schedule: Q04DX003 (ip), vehicle: saline 100 % of control | dose: 200.0 mg/kg/injection, schedule: Q01DX009 (ip), vehicle: saline 93 % of control | dose: 200.0 mg/kg/injection, schedule: Q04DX003 (ip), vehicle: saline 98 % of control | dose: 400.0 mg/kg/injection, schedule: Q01DX009 (ip), vehicle: saline 94 % of control | dose: 400.0 mg/kg/injection, schedule: Q04DX003 (ip), vehicle: saline 108 % of control
